Reference: patent US8859562B2, “Use of RNAI inhibiting PARP activity for the manufacture of a medicament for the treatment of cancer” (The University of Sheffield, priority 2003, dated 2014)

What was measured:
[1] = test system: CXR3 cells (irs1SF complemented with XRCC3); assay: Colony outgrowth assay, CXR3 cells; type: cell-based, Chinese hamster; conditions: CXR3 versus irs1SF; FIG. 1
Description: (§1) 500 cells suspended in medium were plated onto a Petri dish 4 hours prior to the addition of 3-AB, ISQ or NU1025. ISQ and NU1025 were dissolved in DMSO to a final concentration of 0.2% in treatment medium. 7-12 days later, when colonies could be observed, these colonies were fixed and stained with methylene blue in methanol (4 g/l). Colonies consisting of more than 50 cells were subsequently counted.

[2] = test system: irs1 cells (XRCC2 deficient, deficient in HR); assay: Colony outgrowth assay, irs1 cells; type: cell-based, Chinese hamster; conditions: irs1, defective in XRCC2; FIG. 1
Description: as §1

[3] = test system: irs1X2.2 cells (irs1 complemented with XRCC2); assay: Colony outgrowth assay, irs1X2.2 cells; type: cell-based, Chinese hamster; conditions: irs1X2.2 versus irs1; FIG. 1
Description: as §1

[4] = test system: irs1SF cells (XRCC3 deficient, deficient in HR); assay: Colony outgrowth assay, irs1SF cells; type: cell-based, Chinese hamster; conditions: defective in XRCC3, FIG. 1
Description: as §1

[5] = test system: V79 hamster cells; assay: PAR polymer staining (sites of PARP activity); type: cell-based; conditions: V79 cells treated for 24 hours; FIG. 7C
Description: (§2) Cells were plated onto coverslips 4 h prior to 24-h treatments as indicated. Following treatments the medium was removed and coverslips rinsed once in PBS at 37° C. and fixed as described elsewhere. The primary antibodies and dilutions used in this study were; rabbit polyclonal anti PAR (Trevigen; 1:500), goat polyclonal anti Rad51 (C-20, Santa Cruz; 1:200) and rabbit polyclonal anti Rad51 (H-92, Santa Cruz; 1:1000). The secondary antibodies were Cy-3-conjugated goat anti-rabbit IgG antibody (Zymed; 1:500), Alexa 555 goat anti-rabbit F(ab′)2IgG antibody (Molecular Probes; 1:500), Alexa 546 donkey anti-goat IgG antibody (Molecular Probes; 1:500) and Alexa 488 donkey anti-rabbit IgG antibody (Molecular Probes; 1:500). Antibodies were diluted in PBS containing 3% bovine serum albumin. DNA was stained with 1 μg/ml To Pro (Molecular Probes). Images were obtained with a Zeiss LSM 510 inverted confocal microscope using planapochromat 63X/NA 1.4 oil immersion objective and excitation wavelengths 488, 546 and 630 nm. Through focus maximum projection images were acquired from optical sections 0.50 μm apart and with a section thickness of 1.0 μm. Images were processed using Adobe PhotoShop (Abacus Inc). At least 300 nuclei were counted on each slide and those containing more than 10 RAD51 foci or sites of PARP activity were classified as positive.

[6] = test system: PARP; assay: PARP activity assay by level of free NAD(P)H (WST-8); type: cell-based; conditions: FIG. 7F; hydroxyurea 0.5 mM, thymidine 10 mM
Description: A water-soluble tetrazolium salt (5 mM WST-8) was used to monitor the amount of NAD(P)H through its reduction to a yellow coloured formazan dye[43]. 5000 cells were plated in at least triplicate into wells of a 96 well plate and cultured in 100 μl normal growth media for 4 h at 37° C. CK8 buffer (Dojindo Molecular Technology, Gaithersburg, USA), containing WST-8, was then added either with or without treatment with DNA damaging agents at concentrations indicated. Reduction of WST-8 in the presence of NAD(P)H was determined by measuring visible absorbance (OD450) every 30 min. A medium blank was also prepared containing just media and CK8 buffer. Changes in NAD(P)H levels were calculated by comparing the absorbance of wells containing cells treated with DNA damaging agents and those treated with DMSO alone. Alternately relative levels of NAD(P)H in different cells lines were calculated after 4 h incubation in CK8 buffer.

[7] = test system: BRCA2 deficient cells (VC8); assay: Colony outgrowth assay, VC8 cells; type: cell-based, Chinese hamster
Description: as §1

[8] = test system: V-C8+B2 cells; assay: RAD51 foci immunofluorescence, V-C8+B2 cells; type: cell-based, Chinese hamster; conditions: 24-hour treatment, 10 μM, t-test p<0.05, FIG. 5D
Description: as §2

[9] = test system: VC8#13 cells (functional BRCA2 gene on chromosome 13); assay: Colony outgrowth assay, VC8#13 cells; type: cell-based, Chinese hamster; conditions: BRCA2 on chromosome 13 (VC8#13); FIG. 2
Description: as §1

[10] = test system: V79 cells; assay: Pulse-field gel electrophoresis for DSBs, V79 cells; type: cell-based, Chinese hamster; conditions: highly toxic levels of NU1025 (0.1 mM, 24-hour), FIG. 5A
Description: (§3) 1.5×10^6 cells were plated onto 100 mm dishes and allowed 4 h for attachment. […] These inserts were incubated as described elsewhere (8) and separated by pulse-field gel electrophoresis for 24 h (BioRad; 120° angle, 60 to 240 s switch time, 4 V/cm). The gel was subsequently stained with ethidium bromide for analysis.

[11] = test system: V-C8 cells; assay: Pulse-field gel electrophoresis for DSBs, V-C8 cells; type: cell-based, Chinese hamster; conditions: highly toxic levels of NU1025 (0.1 mM, 24-hour), FIG. 5A
Description: as §3

[12] = test system: VC8+B2 cells (functional BRCA2 gene on overexpression vector); assay: Colony outgrowth assay, VC8+B2 cells; type: cell-based, Chinese hamster; conditions: FIG. 2
Description: as §1

[13] = test system: V-C8+B2 cells; assay: Survival on co-treatment with replication inhibitors and NU1025; type: cell-based, Chinese hamster; conditions: co-treatment with NU1025 (10 μM)
Description: as §1

[14] = test system: VC8 cells; assay: Apoptosis experiments (annexin-V/PI flow cytometry); type: cell-based, Chinese hamster; conditions: 72 hours following exposure; FIG. 3
Description: 0.25×10^6 cells were plated onto Petri dishes and grown for 4 hours before treatment with NU1025. After 72 hours, cells were trypsinized and resuspended with medium containing any floating cells from that sample. The cells were pelleted by centrifugation and resuspended for apoptosis analysis with FITC-conjugated annexin-V and propidium iodine (PI) (ApoTarget, Biosource International) according to manufacturer's protocol. Samples were analysed by flow cytometry (Becton-Dickenson FACSort, 488 nm laser), and percentage of apoptotic cells was determined by the fraction of live cells (PI-negative) bound with FITC-conjugated annexin-V.

[15] = test system: MDA-MB-231 (mutated p53) breast cancer cells depleted of BRCA2; assay: Colony outgrowth of siRNA-treated MDA-MB-231 cells; type: cell-based; conditions: MDA-MB-231, BRCA2 depleted with a mixture of BRCA2 siRNA; FIG. 4
Description: 500 cells suspended in medium were plated onto a Petri dish 4 hours prior to the addition of 3-AB, ISQ or NU1025. ISQ and NU1025 were dissolved in DMSO to a final concentration of 0.2% in treatment medium. 7-12 days later, when colonies could be observed, these colonies were fixed and stained with methylene blue in methanol (4 g/l). Colonies consisting of more than 50 cells were subsequently counted. Predesigned BRCA2 SMARTpool and scrambled siRNAs were purchased (Dharmacon, Lafayette, Colo.). 10000 cells seeded onto 6 well plates and left over night before transfected with 100 nM siRNA using Oligofectamine Reagent (Invitrogen) according to manufacturers instructions. Cells were then cultured in normal growth media for 48 h prior to trypsinisation and replating for toxicity assays. Suppression of BRCA2 was confirmed by Western blotting (as described previously) of protein extracts treated with siRNA with an antibody against BRCA2 (Oncogene, Nottingham, UK).

[16] = test system: BRCA2 deficient V-C8 cells; assay: RAD51 foci immunofluorescence, V-C8 cells; type: cell-based, Chinese hamster; conditions: 24-hour treatment, 10 μM, FIG. 5D
Description: as §2

[17] = test system: MCF7 (wild-type p53) breast cancer cells depleted of BRCA2; assay: Colony outgrowth of siRNA-treated MCF-7 cells; type: cell-based; conditions: MCF7, BRCA2 depleted with a mixture of BRCA2 siRNA; FIG. 4
Description: as §1
Predesigned BRCA2 SMARTpool and scrambled siRNAs were purchased (Dharmacon, Lafayette, Colo.). 10000 cells seeded onto 6 well plates and left over night before transfected with 100 nM siRNA using Oligofectamine Reagent (Invitrogen) according to manufacturers instructions. Cells were then cultured in normal growth media for 48 h prior to trypsinisation and replating for toxicity assays. Suppression of BRCA2 was confirmed by Western blotting (as described previously) of protein extracts treated with siRNA with an antibody against BRCA2 (Oncogene, Nottingham, UK).

Structure (SMILES) | sensitivity after introduction of functional XRCC3 gene [1] | sensitivity to the toxic effect (survival) [2] | sensitivity after introduction of functional XRCC2 gene [3] | sensitivity to the toxic effect (survival) [4] | number of cells containing sites of PARP activity [5] | activation of PARP and reduction of NAD(P)H levels [6] | also measured
NC(=O)c1cccc(N)c1 [3-AB, 3-aminobenzamide] | corrected | very sensitive | corrected | very sensitive |  |  | 
Cc1cn([C@H]2C[C@H](O)[C@@H](CO)O2)c(=O)[nH]c1=O [thymidine] |  |  |  |  | substantial increase | much slower | 
NC(=O)NO [hydroxyurea] |  |  |  |  | substantial increase | much slower | 
Cc1nc2c(O)cccc2c(=O)[nH]1 [NU1025, 8-hydroxy-2-methylquinazolin-4-[3H]one] | corrected | very sensitive | corrected | very sensitive |  |  | sensitivity to cytotoxicity relative to wild type cells ([7]; BRCA2 deficient cells versus wild type cells): 100 times; sensitivity to the toxic effect (survival) ([7]; VC8 versus wild type V79Z, FIG. 2): very sensitive; formation of RAD51 foci [8]: RAD51 foci were indeed induced; sensitivity after introduction of functional BRCA2 gene [9]: corrected; accumulation of DSBs [10]: no DSBs were detectable; accumulation of DSBs [11]: no DSBs were detectable; sensitivity after introduction of functional BRCA2 gene [12]: corrected; sensitivity to hydroxyurea ([13]; FIG. 7D): enhances the sensitivity; sensitivity to thymidine ([13]; FIG. 7E): enhances the sensitivity; level of apoptosis [14]: triggered apoptosis only in VC8 cells; survival [15]: profoundly reduced the survival; formation of RAD51 foci [16]: unable to form RAD51 foci; survival [17]: profoundly reduced the survival
Oc1cccc2c(O)nccc12 [ISQ, 1,5-dihydroxyisoquinoline] | corrected | very sensitive | corrected | very sensitive |  |  | 
COS(C)(=O)=O [MMS, Methylmethane sulphonate] |  |  |  |  |  | depletes the NAD(P)H levels | 
